Where two headings read alike, the source gives them in different places. Where a SMILES comes first, the peptide text is derived from it.
Legend:
HLA-A02.01 [1] = molecular target: HLA-A02.01 (Homo sapiens, UniProt P04439, D140Y/D185E/D98H/E176V/E277Q/G131W/G231S/I119V/I121R/I166T/I218V/L300P/L318F/N151K/N90K/P208A/P217A/Q86G/Q94H/R138H/R169H/T345S); assay: Class I MHC peptide binding affinity (displacement of radiolabeled reference peptide)
Summary of the method: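 Radiolabeled reference peptide/MHCI complexes; test peptide titration, 2 d incubation; bound label remaining read by size-exclusion gel filtration.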

HLA-A02.01 [2] = molecular target: T1, HLA-A02.01 (Homo sapiens, UniProt P04439, D140Y/D185E/D98H/E176V/E277Q/G131W/G231S/I119V/I121R/I166T/I218V/N151K/N90K/P208A/P217A/Q86G/Q94H/R138H/R169H); assay: Class I MHC peptide binding stability (pMHC-I dissociation, 125I-labeled light chain); details: for Stability (T1/2 (h)): allele A02.01
T1 construct: made in house; host or cells: E. coli

[3] = allele A02.01, read-out: Observed Affinity (IC50, (nM))
[4] = Observed Affinity (IC50, (nM)), allele A02.01

| Compound | IC50 (HLA-A02.01 [1]; [3]) | Stability (T1/2 (h)) (HLA-A02.01 [2]) | other results |
| --- | --- | --- | --- |
| CSCC[C@H](NC(=O)[C@@H](NC(=O)[C@H](Cc1ccc(O)cc1)NC(=O)[C@H](C)NC(=O)[C@H](CCSC)NC(=O)[C@@H](NC(=O)[C@@H](N)Cc1ccc(O)cc1)C(C)C)C(C)C)C(=O)N[C@@H](C)C(=O)NCC(=O)N[C@H](C(=O)O)C(C)C | 57 nM | 20.9 h | – |
| LQMDFLVEIPA | 68 nM | 1.5 h | – |
| CC(C)C[C@H](NC(=O)[C@H](CO)NC(=O)[C@H](CC(N)=O)NC(=O)[C@H](CS)NC(=O)[C@H](CCC(=O)O)NC(=O)[C@H](Cc1c[nH]cn1)NC(=O)[C@H](CC(C)C)NC(=O)[C@@H](NC(=O)[C@@H](N)CCC(N)=O)C(C)C)C(=O)O | 7770 nM | 0.5 h | – |
| CC(C)C[C@H](NC(=O)[C@H](C)N)C(=O)N[C@@H](CO)C(=O)N[C@@H](CCC(=O)O)C(=O)N[C@@H](Cc1c[nH]cn1)C(=O)N[C@@H](CS)C(=O)N1CCC[C@H]1C(=O)N[C@H](C(=O)N[C@H](C(=O)O)[C@@H](C)O)[C@@H](C)O (H-ALSEHCPTT-OH; N-terminus and C-terminus assumed) | 79 nM | 27.3 h | – |
| CC(C)C[C@H](NC(=O)CN)C(=O)N[C@@H](CC(C)C)C(=O)N[C@@H](C)C(=O)N[C@@H](Cc1ccccc1)C(=O)N[C@@H](Cc1c[nH]c2ccccc12)C(=O)N[C@@H](CC(=O)O)C(=O)N[C@@H](CO)C(=O)N[C@@H](CCC(N)=O)C(=O)N[C@H](C(=O)O)C(C)C (H-GLLAFWDSQV-OH; N-terminus and C-terminus assumed) | 10 nM | 14.2 h | – |
| CC[C@H](C)[C@H](NC(=O)[C@H](CC(N)=O)NC(=O)[C@@H](N)CCSC)C(=O)N[C@@H](C)C(=O)N[C@@H](CC(N)=O)C(=O)N[C@@H](CC(C)C)C(=O)N[C@@H](CC(C)C)C(=O)NCC(=O)N[C@@H](C)C(=O)O (H-MNIANLLGA-OH; N-terminus and C-terminus assumed) | – | 0.3 h | IC50 (HLA-A02.01 [1]; [4]): 128 nM |
| CC(C)C[C@H](NC(=O)[C@H](CC(C)C)NC(=O)[C@@H](NC(=O)[C@H](CC(=O)O)NC(=O)[C@H](C)NC(=O)[C@H](CC(C)C)NC(=O)[C@@H](N)CS)C(C)C)C(=O)N[C@@H](CO)C(=O)N[C@H](C(=O)O)C(C)C (H-CLADVLLSV-OH; N-terminus and C-terminus assumed) | 219 nM | 24 h | – |
| CC[C@H](C)[C@H](NC(=O)[C@H](Cc1ccc(O)cc1)NC(=O)[C@H](CC(C)C)NC(=O)[C@@H](N)CC(C)C)C(=O)N[C@H](C(=O)N[C@@H](C)C(=O)N[C@@H](Cc1ccccc1)C(=O)N[C@@H](Cc1ccccc1)C(=O)N[C@@H](CC(C)C)C(=O)O)[C@@H](C)O | 713 nM | 17 h | – |
| CC[C@H](C)[C@H](N)C(=O)N[C@@H](CCSC)C(=O)N[C@@H](CCC(N)=O)C(=O)N[C@@H](CC(C)C)C(=O)N[C@@H](CCSC)C(=O)N1CCC[C@H]1C(=O)N[C@@H](Cc1ccccc1)C(=O)NCC(=O)N[C@@H](CS)C(=O)O (H-IMQLMPFGC-OH; N-terminus and C-terminus assumed) | 1610 nM | 0.4 h | Kd (HLA-A02.01 [1]; EGFR T790M peptides, HLA allele A02.01, read-out: Affinity): 1.21 µM; Stability (half-life (hr.)) (HLA-A02.01 [2]; EGFR T790M peptides, HLA allele A02.01): 22.21 min |
| CSCC[C@H](NC(=O)[C@@H](N)CO)C(=O)N[C@@H](CC(C)C)C(=O)N[C@H](C(=O)N[C@@H](CC(=O)O)C(=O)N[C@@H](CO)C(=O)N[C@@H](CC(C)C)C(=O)N[C@@H](Cc1ccccc1)C(=O)N[C@@H](CC(C)C)C(=O)O)[C@@H](C)O (H-SMLTDSLFL-OH; N-terminus and C-terminus assumed) | 31 nM | 9.8 h | – |
| CC(C)C[C@H](NC(=O)[C@@H](N)CCCCN)C(=O)NCC(=O)NCC(=O)NCC(=O)N[C@@H](CCC(N)=O)C(=O)N[C@@H](Cc1c[nH]cn1)C(=O)NCC(=O)N[C@@H](CCC(=O)O)C(=O)N[C@H](C(=O)O)C(C)C (H-KLGGGQHGEV-OH; N-terminus and C-terminus assumed) | – | 0.4 h | IC50 (HLA-A02.01 [1]; [4]): 387 nM |
| CC(C)C[C@H](N)C(=O)N[C@H](C(=O)N[C@H](C(=O)N[C@H](C(=O)NCC(=O)N[C@@H](C)C(=O)N[C@@H](CS)C(=O)NCC(=O)N[C@H](C(=O)O)C(C)C)C(C)C)C(C)C)C(C)C (H-LVVVGACGV-OH; N-terminus and C-terminus assumed) | – | 0.6 h | IC50 (HLA-A02.01 [1]; Measured Affinity (nM), HLA Allele A02.01): 667 nM; IC50 (HLA-A02.01 [1]; [4]): 1210 nM; Measured stability (HLA-A02.01 [2]; HLA Allele A02.01, time for half of the complexes to dissociate at 37° C.): 0.6 h |
| CSCC[C@H](NC(=O)[C@@H](N)C(C)C)C(=O)N[C@@H](C)C(=O)N[C@@H](Cc1ccc(O)cc1)C(=O)N[C@H](C(=O)N[C@@H](CCSC)C(=O)N[C@@H](C)C(=O)NCC(=O)N[C@H](C(=O)O)C(C)C)C(C)C (H-VMAYVMAGV-OH; N-terminus and C-terminus assumed) | 2 nM | 16.5 h | – |
| CC[C@H](C)[C@H](N)C(=O)N[C@@H](CC(C)C)C(=O)N[C@@H](CCSC)C(=O)N[C@@H](CCC(=O)O)C(=O)N[C@@H](CC(C)C)C(=O)N[C@@H](CCSC)C(=O)N[C@@H](C)C(=O)NCC(=O)NCC(=O)O (H-ILMELMAGG-OH; N-terminus and C-terminus assumed) | 223 nM | 0.5 h | – |
| CC(C)C[C@H](NC(=O)[C@@H](N)CC(C)C)C(=O)N[C@@H](C)C(=O)N[C@@H](Cc1ccccc1)C(=O)N[C@@H](Cc1c[nH]c2ccccc12)C(=O)N[C@@H](CC(=O)O)C(=O)N[C@@H](CO)C(=O)N[C@@H](CCC(N)=O)C(=O)N[C@H](C(=O)O)C(C)C (H-LLAFWDSQV-OH; N-terminus and C-terminus assumed) | 68 nM | 12.8 h | – |
| CC[C@H](C)[C@H](NC(=O)[C@@H](NC(=O)[C@H](CC(C)C)NC(=O)[C@@H](NC(=O)[C@@H]1CCCN1C(=O)[C@H](CCCNC(=N)N)NC(=O)[C@H](Cc1c[nH]c2ccccc12)NC(=O)[C@H](CC(N)=O)NC(=O)[C@H](CCSC)NC(=O)CN)[C@@H](C)CC)[C@@H](C)O)C(=O)O | 282 nM | 0.5 h | – |
| CSCC[C@H](NC(=O)[C@H](CCC(=O)O)NC(=O)[C@H](CC(C)C)NC(=O)[C@H](CC(C)C)NC(=O)[C@H](CC(C)C)NC(=O)CN)C(=O)N[C@@H](CC(C)C)C(=O)N[C@@H](CC(=O)O)C(=O)N[C@@H](C)C(=O)O (H-GLLLEMLDA-OH; N-terminus and C-terminus assumed) | 558 nM | 0.4 h | – |
| CC[C@H](C)[C@H](NC(=O)[C@@H](NC(=O)[C@H](CC(C)C)NC(=O)[C@@H](NC(=O)[C@@H]1CCCN1C(=O)[C@H](CCCNC(=N)N)NC(=O)[C@H](CCC(N)=O)NC(=O)[C@H](CC(N)=O)NC(=O)[C@H](CCSC)NC(=O)CN)[C@@H](C)CC)[C@@H](C)O)C(=O)O | 709 nM | 0.4 h | – |
| CSCC[C@H](NC(=O)[C@H](CCC(=O)O)NC(=O)[C@H](CC(C)C)NC(=O)[C@H](CC(C)C)NC(=O)[C@H](CC(C)C)NC(=O)[C@H](CC(=O)O)NC(=O)[C@H](CO)NC(=O)[C@H](CC(C)C)NC(=O)[C@@H]1CCCN1)C(=O)O (H-PLSDLLLEM-OH; N-terminus and C-terminus assumed) | 404 nM | 2.7 h | – |
| CC(C)[C@H](N)C(=O)N[C@H](C(=O)N1CCC[C@H]1C(=O)N[C@@H](CS)C(=O)N[C@@H](CCC(=O)O)C(=O)N1CCC[C@H]1C(=O)N1CCC[C@H]1C(=O)N[C@@H](CCC(=O)O)C(=O)N[C@H](C(=O)O)C(C)C)C(C)C | 187 nM | 0.9 h | – |

— patent US20220282217A1, “COMPOSITIONS AND METHODS FOR PREPARING T CELL COMPOSITIONS AND USES THEREOF” (priority 2019, published 2022)
